# pIC50, pKd: −log10 of the molar value. Active and inactive are the calls of the source. No cut-off for these calls is given here. Where a SMILES comes first, the peptide text is derived from it. Bridges are numbered along the chain shown (N, C = ends). Roman numbers before positions name the chains, in order. Side-chain parts run from the residue outwards. The star is where a group is joined. Fmoc = O=C(OCC1c2ccccc2-c2ccccc21)*
# Columns and labels:
# RAW264.7 [1] = assay: Cytotoxicity against mouse RAW264.7 cells assessed as cell viability at lesser than 100 ug/ml by CCK-8 assay; type: toxicity, cell-based; conditions: dose < 100 µg/ml
# Mus musculus [2] = assay: Antiviral activity against Kunming mouse infected with Influenza A virus (A/Puerto Rico/8/1934(H1N1)) assessed as reduction in viral titer in lung homogenate at 1.25 mg/kg, ip administered twice a day for 3 days after 24 hrs of viral infection; type: functional, organism-based; conditions: time 3.0 day
# RAW264.7 [3] = assay: Anti-inflammatory activity against mouse RAW264.7 cells assessed as reduction in influenza A virus induced TNF alpha level at 1 ug/ml by qRT- PCR; type: functional, cell-based; conditions: dose 1.0 µg/ml
# Hemagglutinin = Hemagglutinin (Influenza A virus, UniProt B4URE7); assay: Binding affinity to Influenza A Puerto Rico/8/1934/H1N1 hemagglutin assessed as dissociation constant by surface plasmon resonance assay
# Hemagglutinin, sequence (B4URE7 whole entry): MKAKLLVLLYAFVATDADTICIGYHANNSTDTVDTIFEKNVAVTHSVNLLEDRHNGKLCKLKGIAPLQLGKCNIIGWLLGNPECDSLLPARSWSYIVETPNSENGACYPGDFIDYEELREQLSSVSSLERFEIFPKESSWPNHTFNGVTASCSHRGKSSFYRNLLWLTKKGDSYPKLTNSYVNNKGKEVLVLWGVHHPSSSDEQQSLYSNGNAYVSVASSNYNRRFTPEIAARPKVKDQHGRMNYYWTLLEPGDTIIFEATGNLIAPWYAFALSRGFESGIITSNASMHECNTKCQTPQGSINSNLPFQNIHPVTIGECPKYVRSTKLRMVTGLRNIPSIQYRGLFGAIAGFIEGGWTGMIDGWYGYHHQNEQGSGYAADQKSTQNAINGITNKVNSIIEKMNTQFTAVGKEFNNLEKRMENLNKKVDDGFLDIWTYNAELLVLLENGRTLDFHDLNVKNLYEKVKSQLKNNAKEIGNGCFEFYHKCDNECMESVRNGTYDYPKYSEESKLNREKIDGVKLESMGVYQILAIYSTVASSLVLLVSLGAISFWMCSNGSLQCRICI
# RAW264.7 [4] = assay: Anti-inflammatory activity against mouse RAW264.7 cells assessed as reduction in LPS induced TNF alpha level at 5 ug/ml by ELISA method; type: functional; conditions: dose 5 µg/ml
# Mus musculus [5] = assay: Antiviral activity against Kunming mouse infected with Influenza A virus (A/Puerto Rico/8/1934(H1N1)) assessed as survival rate at 1.25 mg/kg, ip administered twice a day with a time interval of 12 hrs for 4 days relative to control; type: functional; conditions: 96 h, time 4 day
# [6] = Selectivity index, ratio of CC50 for MDCK cells to IC50 antiviral activity against Influenza A virus (A/Puerto Rico/8/1934(H1N1)) infected in MDCK cells assessed as reduction in virus induced cytopathic effect pre-treated with virus; type: toxicity, cell-based; conditions: dog, read-out: Selectivity Index
# Influenza A virus [7] = assay: Antiviral activity against Influenza A virus (A/Puerto Rico/8/1934(H1N1)) infected in MDCK cells assessed as reduction in viral nucleoprotein expression level at 2 ug/ml pretreated with compound measured after 24 hrs post infection by indirect immunofluorescence assay; type: functional, organism-based; conditions: dose 2.0 µg/ml
# RAW264.7 [8] = assay: Anti-inflammatory activity against mouse RAW264.7 cells assessed as reduction in influenza A virus induced IL-6 level at 1 ug/ml by qRT- PCR; type: functional, cell-based; conditions: dose 1.0 µg/ml
# [9] = Cytotoxicity against MDCK cells incubated for 1 hr by MTT assay; type: toxicity, cell-based, Canis lupus familiaris; conditions: dog
# RAW264.7 [10] = assay: Anti-inflammatory activity against mouse RAW264.7 cells assessed as reduction in Influenza A virus (A/Puerto Rico/8/1934(H1N1)) induced TNF alpha level at 1 ug/ml by ELISA method; type: functional; conditions: dose 1 µg/ml
# RAW264.7 [11] = assay: Anti-inflammatory activity against mouse RAW264.7 cells assessed as reduction in LPS induced IL-6 level at 1 ug/ml by qRT-PCR analysis; type: functional, cell-based; conditions: dose 1.0 µg/ml
# Mus musculus [12] = assay: Antiviral activity against Kunming mouse infected with Influenza A virus (A/Puerto Rico/8/1934(H1N1)) assessed as survival rate at 5 mg/kg, ip administered once a day for 5 days relative to control; type: functional; conditions: 120 h, time 5 day
# Influenza A virus [13] = assay: Antiviral activity against Influenza A virus (A/Puerto Rico/8/1934(H1N1)) infected in MDCK cells assessed as reduction in virus induced cytopathic effect pre-treated with virus followed by cell infection for 1 hr by MTT assay; type: functional, organism-based
structure (smiles),measurement,setting,value
NCCCC[C@H](NC(=O)OCC1c2ccccc2-c2ccccc21)C(=O)N[C@@H](CCCCN)C(=O)N[C@@H](Cc1c[nH]c2ccccc12)C(=O)N[C@@H](CCCCN)C(=O)NCCCC[C@H](NC(=O)[C@H](CCCCN)NC(=O)[C@H](Cc1c[nH]c2ccccc12)NC(=O)[C@H](CCCCN)NC(=O)[C@H](CCCCN)NC(=O)OCC1c2ccccc2-c2ccccc21)C(=O)NCCCC[C@H](NC(=O)[C@H](CCCCNC(=O)[C@H](CCCCN)NC(=O)[C@H](Cc1c[nH]c2ccccc12)NC(=O)[C@H](CCCCN)NC(=O)[C@H](CCCCN)NC(=O)OCC1c2ccccc2-c2ccccc21)NC(=O)[C@H](CCCCN)NC(=O)[C@H](Cc1c[nH]c2ccccc12)NC(=O)[C@H](CCCCN)NC(=O)[C@H](CCCCN)NC(=O)OCC1c2ccccc2-c2ccccc21)C(=O)NCC(=O)O (I: Fmoc-KKWKK([Lys-Trp-Lys-Lys-Fmoc])KG-OH / II: Fmoc-KKWKK([Lys-Trp-Lys-Lys-Fmoc]); amide I:6-II:C),Activity,RAW264.7 [1],Non-Toxic
same,Activity,Mus musculus [2],Active
same,Activity,RAW264.7 [3],Active
same,pKd,Hemagglutinin,11.18
same,Activity,RAW264.7 [4],280.5 pg/mL
same,survival at 1.25 mg/kg,Mus musculus [5],20%
same,selectivity ratio,[6],150
same,Activity,Influenza A virus [7],Active
same,Activity,RAW264.7 [8],Active
same,CC50 at 1 h,[9],41900 nM
same,Activity,RAW264.7 [10],203 pg/mL
same,Activity,RAW264.7 [11],Active
same,survival at 5 mg/kg,Mus musculus [12],20%
same,pIC50,Influenza A virus [13],6.55

# From ChEMBL document CHEMBL5131467, “Multivalent peptide dendrimers inhibit the fusion of viral-cellular membranes and the cellular NF-κB signaling pathway” (Eur J Med Chem, 2022)
